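Method: 48-hour compound exposure of cells in 96-well plates, five concentrations, linear interpolation of endpoints. GI50 is the concentration that inhibits growth by half.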 Activity calls are given as the source filed them. No stated cut-off is given here; in the data, active = GI50 up to about 1.1 µM and inactive = higher.
Tests used:
Assay in all cases: NCI-60 cell line screen, 48 h
CCRF-CEM = system: CCRF-CEM
ACHN = system: ACHN
SF-539 = system: SF-539
NCI-H23 = system: NCI-H23
SW-620 = system: SW-620
IGROV-1 = system: IGROV-1
KM12 = system: KM12
HCT-116 = system: HCT-116
SF-295 = system: SF-295
OVCAR-3 = system: OVCAR-3
A549 = system: A549
OVCAR-8 = system: OVCAR-8
RXF 393 = system: RXF 393
COLO 205 = system: COLO 205
HT-29 = system: HT-29
U-251 = system: U-251
SK-MEL-5 = system: SK-MEL-5
SNB-19 = system: SNB-19
UACC-257 = system: UACC-257
SK-MEL-28 = system: SK-MEL-28

Measured: GI50

N#C/C(=C\NC(=S)Nc1ccc(S(=O)(=O)Nc2ccccn2)cc1)C(N)=O
inactive: CCRF-CEM 42.2 µM | ACHN > 100 µM | SF-539 > 100 µM | NCI-H23 80.2 µM | SW-620 > 100 µM | IGROV-1 > 100 µM | KM12 > 100 µM | HCT-116 > 100 µM | SF-295 > 100 µM | OVCAR-3 > 100 µM | A549 > 100 µM | OVCAR-8 > 100 µM | RXF 393 > 100 µM | COLO 205 > 100 µM | HT-29 > 100 µM | U-251 > 100 µM | SK-MEL-5 > 100 µM | SNB-19 > 100 µM | UACC-257 > 100 µM | SK-MEL-28 > 100 µM

CC(=O)NC(c1nc2cc(C)c(C)cc2[nH]1)c1nc2cc(C)c(C)cc2[nH]1
inactive: CCRF-CEM 7.05 µM | ACHN 29.2 µM | SF-539 14.1 µM | NCI-H23 32.2 µM | SW-620 22.3 µM | IGROV-1 11.7 µM | KM12 16 µM | HCT-116 19.1 µM | SF-295 22.4 µM | OVCAR-3 13.9 µM | A549 21.3 µM | OVCAR-8 20 µM | RXF 393 26.3 µM | COLO 205 18 µM | HT-29 15.2 µM | U-251 20.9 µM | SK-MEL-5 15.2 µM | SNB-19 41.5 µM | UACC-257 21.3 µM | SK-MEL-28 17.7 µM

CC1(c2sccc2Cl)CC(c2sccc2Cl)=C(C#N)C(=C(C#N)C#N)N1 (stereo not given)
inactive: CCRF-CEM 38.4 µM | ACHN 18.5 µM | SF-539 19.8 µM | NCI-H23 17.9 µM | SW-620 18.8 µM | IGROV-1 23 µM | KM12 20.9 µM | HCT-116 17.2 µM | SF-295 17.9 µM | OVCAR-3 14.9 µM | A549 24.7 µM | OVCAR-8 20.8 µM | RXF 393 16.4 µM | COLO 205 23.1 µM | HT-29 24 µM | U-251 18.5 µM | SK-MEL-5 18.5 µM | SNB-19 18.3 µM | UACC-257 22.4 µM | SK-MEL-28 18.2 µM

Reference: ChEMBL document CHEMBL1201862, “PubChem BioAssay data set” (2004)
